Assay results reported in patent US7078406B2, “Substituted diphenyloxazoles, the synthesis thereof, and the use thereof as fluorescence probes” (Johnson & Johnson Pharmaceutical Research & Development, …, priority 2001, dated 2006).
“Also recorded” adds a separate entry of the source.

Assays:
thrombin = thrombin (Homo sapiens, UniProt P00734); assay: Fluorescence emission spectra of dye mixed with native and heat-unfolded thrombin; conditions: for emission maximum (comparison dyes): comparison value, conditions not stated
Procedure: FIG. 2 provides the fluorescence emission spectra of 4-[5-(4-dimethylaminophenyl)oxazol-2-yl]-N-(2-guanidinoethyl)-benzenesulfonamide (10 μM) mixed with thrombin (0.1 mg/mL) in buffer (50 mM HEPES, pH 7.5, 150 mM NaCl). The emission spectrum indicated by the squares was acquired with native (folded) thrombin, immediately after preparing the solution. The emission spectrum indicated by the triangles was obtained after heating the solution to 80° C. for five minutes to unfold the thrombin protein.
(§1) 4-[5-(4-dimethylaminophenyl)oxazol-2-yl]-N-(2-guanidinoethyl)-benzenesulfonamide was mixed with different solvents to yield a final dye concentration of 10 μM. The spectra of this dye in methanol (MeOH), dimethyl sulfoxide (DMSO), and aqueous buffer (50 mM HEPES, pH7.5, 150 mM sodium chloride) are shown in FIG. 1. This figure illustrates the marked enhancement in emission intensity (200–500 fold) observed for this dye when it is shifted from an aqueous environment to a nonaqueous environment. The 4-[5-(4-dimethylaminophenyl)oxazol-2-yl]-N-(2-guanidinoethyl)benzenesulfonamide was mixed with a 0.1 mg/mL solution of thrombin, a protein, in buffer (50 mM HEPES, pH7.5, 150 mM sodium chloride), to yield a final dye concentration of 10 μM. The fluorescence emission spectra of this solution were recorded both immediately after mixing and also following heating of the solution to 80° C. for 5 minutes.

PPAR-gamma = target: T1, PPAR-gamma (Homo sapiens, UniProt P37231); assay: Fluorescence curves on heating in a Thermofluor instrument (protein unfolding transition); conditions: 100 μM dye, 0.2 mg/mL protein, 25 mM HEPES pH 7.9, 200 mM NaCl, 5 mM dithiothreitol, 1 mM EDTA, 384-well plate
T1 sequence (P37231 1-505): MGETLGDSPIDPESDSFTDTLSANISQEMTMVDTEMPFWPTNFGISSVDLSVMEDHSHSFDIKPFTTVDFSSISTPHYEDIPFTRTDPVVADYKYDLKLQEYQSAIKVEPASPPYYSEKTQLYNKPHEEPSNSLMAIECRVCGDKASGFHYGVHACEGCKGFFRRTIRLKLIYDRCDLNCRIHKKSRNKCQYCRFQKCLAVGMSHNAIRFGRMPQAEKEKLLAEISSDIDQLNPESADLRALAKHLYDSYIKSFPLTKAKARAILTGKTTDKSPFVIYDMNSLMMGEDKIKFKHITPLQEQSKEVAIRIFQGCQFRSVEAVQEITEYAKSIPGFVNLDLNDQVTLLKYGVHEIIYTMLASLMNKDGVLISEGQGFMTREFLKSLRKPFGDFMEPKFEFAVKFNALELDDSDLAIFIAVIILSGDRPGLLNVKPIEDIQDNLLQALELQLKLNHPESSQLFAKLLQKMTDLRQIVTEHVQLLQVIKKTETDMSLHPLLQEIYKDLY
Text: FIG. 3 provides the individual fluorescent curves for three dyes 4-[5-(4-dimethylaminophenyl)oxazol-2-yl]-N-(2-guanidinoethyl)-benzene-sulfonamide, 5-(4″-dimethylaminophenyl)-2-(4′-phenyl)oxazole sulfonate, and 1,8-anilino-napthylene sulfonate) when analyzed in a Thermofluor® instrument using the protein PPAR-gamma as described in Example 3.
4-[5-(4-dimethylaminophenyl)oxazol-2-yl]-N-(2-guanidinoethyl)-benzenesulfonamide, 5-(4″-dimethylaminophenyl)-2-(4′-phenyl)oxazole sulfonate, and 1,8-anilino-napthylene sulfonate were mixed with a protein, PPAR-gamma, each in separate wells of a polypropylene 384-well plate. Each solution consisted of 100 μM of each dye mixed with 0.2 mg/mL protein in a buffer consisting of 25 mM HEPES pH 7.9, 200 mM NaCl, 5 mM dithiothreitol, and 1 mM EDTA. Individual fluorescence curves generated by heating to different temperatures in a Thermofluor® instrument are shown in FIG. 3.

[1] = Fluorescence emission spectra of the dye in different solvents; type: physicochemical; conditions: 10 μM dye; shifted from aqueous buffer (50 mM HEPES, pH7.5, 150 mM sodium chloride) to nonaqueous environment (MeOH, DMSO)
Procedure: FIG. 1A provides the fluorescence emission spectra of 4-[5-(4-dimethylaminophenyl)oxazol-2-yl]-N-(2-guanidinoethyl)-benzenesulfonamide in methanol and in dimethylsulfoxide. Also provided is the fluroescence emission spectrum of the buffer. FIG. 1B provides part of the spectrum of FIG. 1A, showing the range from 0 to 10,000 cps.
as §1

Row | Compound | emission maximum (comparison dyes) (thrombin) | measurable unfolding transition of the protein (PPAR-gamma) | enhancement in emission intensity [1] | emission maximum of dye bound to unfolded protein (thrombin; 10 μM dye, 0.1 mg/mL thrombin, 50 mM HEPES pH7.5, 150 mM NaCl, after heating to 80° C. for 5 minutes) [nm] | change in fluorescence emission on binding to unfolded protein (thrombin; 10 μM dye, 0.1 mg/mL thrombin, after heating to 80° C. for 5 minutes vs native)
1 | O=S(=O)(O)c1cccc2cccc(Nc3ccccc3)c12 [1,8-anilinonaphthylene sulfonate, reference compound] | approximately 460 nm | fail to produce a measurable transition |  |  | 
2 | CN(C)c1ccc(-c2cnc(-c3ccc(S(=O)(=O)NCCNC(=N)N)cc3)o2)cc1 [4-[5-(4-dimethylaminophenyl)oxazol-2-yl]-N-(2-guanidinoethyl)benzenesulfonamide] |  | can be readily monitored | 200–500 fold | 520 | substantial enhancement in fluorescence emission; also recorded: increase in fluorescence emission
3 | CN(C)c1ccc(-c2cnc(-c3ccc(S(=O)(=O)O)cc3)o2)cc1 [5-(4″-dimethylaminophenyl)-2-(4′-phenyl)oxazole sulfonate, reference compound] | approximately 460 nm | fail to produce a measurable transition |  |  | 
